Reference: patent publication US12544395B2, “Combination compositions comprising a beta-lactamase inhibitor and uses thereof” (priority 2018, dated 2026)

Columns and labels:
Type in all cases: cell-based
E. coli 25922 = test: Broth microdilution MIC (strain enzymes: None detected)
K. pneumoniae 115468 = test: Broth microdilution MIC (strain enzymes: TEM-1)
E. coli SI-NO36 = test: Broth microdilution MIC (strain enzymes: SHV-11, TEM-1)
K. pneumoniae ESBL 7 #2 = test: Broth microdilution MIC (strain enzymes: SHV-12, CTX-M15, TEM-1)
K. pneumoniae 11/23 LF#2 = test: microbe, parasite or virus in culture
K. pneumoniae KP 8 = test: Broth microdilution MIC (strain enzymes: TEM-10, TEM-1, CTX-M15)

CCC(=O)N[C@H]1Cc2cccc(C(=O)O)c2OB1O [Compound 2, (R)-2-hydroxy-3-propionamido-3,4-dihydro-2H-benzo[e][1,2]oxaborinine-8-carboxylic acid]
>32 µg/mL: MIC of cefalexin (LEX) (K. pneumoniae ESBL 7 #2; with inhibitor at 1 μg/mL) | MIC of cefdinir (CDR) (K. pneumoniae ESBL 7 #2; with inhibitor at 1 μg/mL)
32 µg/mL: MIC of cefalexin (LEX) (K. pneumoniae ESBL 7 #2; with inhibitor at 2 μg/mL) | MIC of cefdinir (CDR) (K. pneumoniae ESBL 7 #2; with inhibitor at 2 μg/mL)
0.5 µg/mL: MIC of cefalexin (LEX) (K. pneumoniae 115468; with inhibitor at 1 μg/mL) | MIC of cefdinir (CDR) (K. pneumoniae 115468; with inhibitor at 1 μg/mL) | MIC of cefixime (CFM) (K. pneumoniae 115468; with inhibitor at 2 μg/mL) | MIC of cefixime (CFM) (K. pneumoniae 115468; with inhibitor at 4 μg/mL) | MIC of cefixime (CFM) (E. coli SI-NO36; with inhibitor at 1 μg/mL) | MIC of cefixime (CFM) (E. coli SI-NO36; with inhibitor at 4 μg/mL) | MIC of cefalexin (LEX) (K. pneumoniae 11/23 LF#2; with inhibitor at 2 μg/mL) | MIC of cefdinir (CDR) (K. pneumoniae 11/23 LF#2; with inhibitor at 2 μg/mL)
0.06 µg/mL: MIC of cefixime (CFM) (E. coli 25922; with inhibitor at 2 μg/mL) | MIC of ceftibuten (CTB) (E. coli 25922; with inhibitor at 2 μg/mL) | MIC of cefixime (CFM) (E. coli 25922; with inhibitor at 4 μg/mL) | MIC of ceftibuten (CTB) (E. coli 25922; with inhibitor at 4 μg/mL) | MIC of ceftibuten (CTB) (K. pneumoniae 115468; with inhibitor at 1 μg/mL) | MIC of ceftibuten (CTB) (K. pneumoniae 115468; with inhibitor at 2 μg/mL) | MIC of ceftibuten (CTB) (K. pneumoniae 115468; with inhibitor at 4 μg/mL) | MIC of ceftibuten (CTB) (E. coli SI-NO36; with inhibitor at 1 μg/mL) | MIC of ceftibuten (CTB) (E. coli SI-NO36; with inhibitor at 4 μg/mL) | MIC of ceftibuten (CTB) (K. pneumoniae KP 8; with inhibitor at 1 μg/mL)
0.25 µg/mL: MIC of cefalexin (LEX) (K. pneumoniae 115468; with inhibitor at 2 μg/mL) | MIC of cefdinir (CDR) (K. pneumoniae 115468; with inhibitor at 2 μg/mL) | MIC of cefixime (CFM) (E. coli SI-NO36; with inhibitor at 2 μg/mL) | MIC of cefalexin (LEX) (E. coli SI-NO36; with inhibitor at 4 μg/mL) | MIC of cefdinir (CDR) (E. coli SI-NO36; with inhibitor at 4 μg/mL) | MIC of cefalexin (LEX) (K. pneumoniae 11/23 LF#2; with inhibitor at 1 μg/mL) | MIC of cefdinir (CDR) (K. pneumoniae 11/23 LF#2; with inhibitor at 1 μg/mL) | MIC of ceftibuten (CTB) (K. pneumoniae 11/23 LF#2; with inhibitor at 1 μg/mL) | MIC of ceftibuten (CTB) (K. pneumoniae 11/23 LF#2; with inhibitor at 2 μg/mL) | MIC of cefalexin (LEX) (K. pneumoniae 11/23 LF#2; with inhibitor at 4 μg/mL) | MIC of cefdinir (CDR) (K. pneumoniae 11/23 LF#2; with inhibitor at 4 μg/mL) | MIC of cefalexin (LEX) (K. pneumoniae KP 8; with inhibitor at 1 μg/mL) | MIC of cefdinir (CDR) (K. pneumoniae KP 8; with inhibitor at 1 μg/mL) | MIC of cefixime (CFM) (K. pneumoniae KP 8; with inhibitor at 1 μg/mL)
0.03 µg/mL: MIC of ceftibuten (CTB) (K. pneumoniae KP 8; with inhibitor at 2 μg/mL)
2 µg/mL: MIC of cefixime (CFM) (K. pneumoniae 115468; with inhibitor at 1 μg/mL) | MIC of ceftibuten (CTB) (K. pneumoniae ESBL 7 #2; with inhibitor at 2 μg/mL) | MIC of cefixime (CFM) (K. pneumoniae 11/23 LF#2; with inhibitor at 2 μg/mL)
1 µg/mL: MIC of cefixime (CFM) (K. pneumoniae ESBL 7 #2; with inhibitor at 4 μg/mL) | MIC of ceftibuten (CTB) (K. pneumoniae ESBL 7 #2; with inhibitor at 4 μg/mL) | MIC of cefixime (CFM) (K. pneumoniae 11/23 LF#2; with inhibitor at 4 μg/mL)
8 µg/mL: MIC of cefixime (CFM) (K. pneumoniae ESBL 7 #2; with inhibitor at 1 μg/mL) | MIC of cefixime (CFM) (K. pneumoniae ESBL 7 #2; with inhibitor at 2 μg/mL)
4 µg/mL: MIC of ceftibuten (CTB) (K. pneumoniae ESBL 7 #2; with inhibitor at 1 μg/mL) | MIC of cefixime (CFM) (K. pneumoniae 11/23 LF#2; with inhibitor at 1 μg/mL)
16 µg/mL: MIC of cefalexin (LEX) (K. pneumoniae ESBL 7 #2; with inhibitor at 4 μg/mL) | MIC of cefdinir (CDR) (K. pneumoniae ESBL 7 #2; with inhibitor at 4 μg/mL)
0.125 µg/mL: MIC of cefdinir (CDR) (E. coli 25922; with inhibitor at 1 μg/mL) | MIC of cefixime (CFM) (E. coli 25922; with inhibitor at 1 μg/mL) | MIC of ceftibuten (CTB) (E. coli 25922; with inhibitor at 1 μg/mL) | MIC of cefalexin (LEX) (E. coli 25922; with inhibitor at 2 μg/mL) | MIC of cefdinir (CDR) (E. coli 25922; with inhibitor at 2 μg/mL) | MIC of cefalexin (LEX) (E. coli 25922; with inhibitor at 4 μg/mL) | MIC of cefdinir (CDR) (E. coli 25922; with inhibitor at 4 μg/mL) | MIC of cefalexin (LEX) (K. pneumoniae 115468; with inhibitor at 4 μg/mL) | MIC of cefdinir (CDR) (K. pneumoniae 115468; with inhibitor at 4 μg/mL) | MIC of cefalexin (LEX) (E. coli SI-NO36; with inhibitor at 1 μg/mL) | MIC of cefdinir (CDR) (E. coli SI-NO36; with inhibitor at 1 μg/mL) | MIC of cefalexin (LEX) (E. coli SI-NO36; with inhibitor at 2 μg/mL) | MIC of cefdinir (CDR) (E. coli SI-NO36; with inhibitor at 2 μg/mL) | MIC of ceftibuten (CTB) (E. coli SI-NO36; with inhibitor at 2 μg/mL) | MIC of ceftibuten (CTB) (K. pneumoniae 11/23 LF#2; with inhibitor at 4 μg/mL) | MIC of cefalexin (LEX) (K. pneumoniae KP 8; with inhibitor at 2 μg/mL) | MIC of cefdinir (CDR) (K. pneumoniae KP 8; with inhibitor at 2 μg/mL) | MIC of cefixime (CFM) (K. pneumoniae KP 8; with inhibitor at 2 μg/mL) | MIC of cefalexin (LEX) (K. pneumoniae KP 8; with inhibitor at 4 μg/mL)
